Test results reported in patent publication US8003666B2, “Hydrate for medical purposes” (priority 2006, dated 2011).
≈ marks a conversion by molar mass, not a printed value.

Tested on: Mycobacterium tuberculosis (bacteria resistant to quinolone)
Assay: microbe, parasite or virus in culture
Format: cell-based

Compound	MIC (strain 1 (QR-3)) [µg/mL]	MIC (strain 2 (QR-6)) [µg/mL]	MIC (strain 3 (QR-1)) [µg/mL]	MIC (strain 4 (QR-9)) [µg/mL]	MIC (strain MDR 1) [µg/mL]	MIC (strain MDR 3) [µg/mL]	MIC (strain MDR 4) [µg/mL]	MIC (strain MDR 5) [µg/mL]	MIC (strain MDR 7) [µg/mL]	MIC (strain MDR 9) [µg/mL]	MIC (strain MDR 12) [µg/mL]	MIC (strain s 1) [µg/mL]
CO[C@H]1/C=C/O[C@@]2(C)Oc3c(C)c(O)c4c(O)c(c(/C=N/N5CCN(C)CC5)c(O)c4c3C2=O)NC(=O)/C(C)=C\C=C\[C@H](C)[C@H](O)[C@@H](C)[C@@H](O)[C@@H](C)[C@H](OC(C)=O)[C@@H]1C [RFP, rifampicin]	> 128	> 128	128 (≈ 156 µM)	> 128	16 (≈ 19.4 µM)	128 (≈ 156 µM)	64 (≈ 77.8 µM)	32 (≈ 38.9 µM)	> 128	128 (≈ 156 µM)	128 (≈ 156 µM)	16 (≈ 19.4 µM)
COc1c(N2CC3(CC3)[C@](C)(N)C2)c(F)cc2c(=O)c(C(=O)O)cn([C@@H]3C[C@@H]3F)c12 [Hemihydrate, 7-[(7S)-7-Amino-7-methyl-5-azaspiro[2.4]heptan-5-yl]-6-fluoro-1-[(1R,2S)-2-fluorocyclopropyl]-8-methoxy-1,4-dihydro-4-oxoquinoline-3-carboxylic acid hemihydrate]	0.125	0.5	0.25	0.25	0.125	0.125	0.25	0.5	0.125	0.125	0.125	1
